tested on: HBV replication in HepG2-2.2.15 cells; experiment: Inhibition of HBV replication dot-blot assay; assay type: cell-based; settings: Hepatitis B virus, 144 h, 6 days, reduction in HBV DNA levels
Description: Compounds active in the HBV assembly assay are tested for their activity and toxicity in cellular assay. In the first anti-viral assay, the ability of compounds to inhibit HBV replication in an HBV-producing hepatoma cell line using the dot-blot method is evaluated.
(§1) Briefly, confluent monolayers of HepG2-2.2.15 cells are incubated with complete medium containing various concentrations of a test compound. Three days later, the culture medium is replaced with fresh medium containing the appropriately diluted test compound. Six days following the initial administration of the test compound, the cell culture supernatant is collected, and cell lysis is performed. The samples are applied onto Nylos membranes and DNA is immobilized to the membrane by UV cross-linking. After pre-hybridization, the HBV probe is added and the hybridization is performed overnight. The membranes are exposed to the KODAK films; antiviral activity is calculated from the reduction in HBV DNA levels (EC50). The EC50 for antiviral activity is calculated from the dose response curves of active compounds. Assay performance over time is monitored by the use of the standard positive control compounds ETV, BAY 41-4109, and HAP-1.
Selected compounds are tested for their activity and toxicity in cellular assay. In the first anti-viral assay, the ability of compounds to inhibit HBV replication in an HBV-producing hepatoma cell line using the dot-blot method is evaluated.
as §1, with “Confluent monolayers” for “Briefly, confluent monolayers”, “lysis was” for “lysis is”

Row | SMILES | EC50 [µM]
1 | O=C(Nc1cc(F)c(F)c(F)c1)c1ccc(F)c(S[C@H]2CCCC[C@H](O)C2)c1 (racemic) [Example 14B, (±)-4-Fluoro-3-(((1R,3R)-3-hydroxycycloheptyl)thio)-N-(3,4,5-trifluorophenyl)benzamide] | < 10
2 | O=C(Nc1ccc(F)c(Cl)c1)c1ccc(F)c(S[C@H]2CC[C@H](O)C2)c1 (racemic) [Example 25, (±)-N-(3-Chloro-4-fluorophenyl)-4-fluoro-3-(((1S,3S)-3-hydroxycyclopentyl)thio)benzamide] | < 10
3 | O=C(Nc1ccc(F)c(Cl)c1)c1ccc(F)c(SC2CCC[C@H](O)C2)c1 (mixture of isomers) [Example 21, (±)-N-(3-Chloro-4-fluorophenyl)-4-fluoro-3-(((1R,3R)-3-hydroxycyclohexyl)thio)benzamide] | < 10
4 | O=C(Nc1cc(F)c(F)c(F)c1)c1ccc(F)c(S[C@H]2CCCC[C@@H](O)C2)c1 (racemic) [Example 14A, (±)-4-Fluoro-3-(((1S,3R)-3-hydroxycycloheptyl)thio)-N-(3,4,5-trifluorophenyl)benzamide] | < 10

From patent publication US9597332B2, “Sulfide alkyl compounds for HBV treatment” (NOVIRA THERAPEUTICS, INC., priority 2014, dated 2017)
